# Biological target: T1, angiotensin converting enzyme (Oryctolagus cuniculus, UniProt P12822)
# T1 construct: Rabbit lung acetone powder was extracted with 10 volumes of 50 mM sodium borate buffer; from tissue; host or cells: rabbit lung (acetone powder, borate buffer extract, 40,000 x g supernatant)
# T1 sequence (P12822 34-1310): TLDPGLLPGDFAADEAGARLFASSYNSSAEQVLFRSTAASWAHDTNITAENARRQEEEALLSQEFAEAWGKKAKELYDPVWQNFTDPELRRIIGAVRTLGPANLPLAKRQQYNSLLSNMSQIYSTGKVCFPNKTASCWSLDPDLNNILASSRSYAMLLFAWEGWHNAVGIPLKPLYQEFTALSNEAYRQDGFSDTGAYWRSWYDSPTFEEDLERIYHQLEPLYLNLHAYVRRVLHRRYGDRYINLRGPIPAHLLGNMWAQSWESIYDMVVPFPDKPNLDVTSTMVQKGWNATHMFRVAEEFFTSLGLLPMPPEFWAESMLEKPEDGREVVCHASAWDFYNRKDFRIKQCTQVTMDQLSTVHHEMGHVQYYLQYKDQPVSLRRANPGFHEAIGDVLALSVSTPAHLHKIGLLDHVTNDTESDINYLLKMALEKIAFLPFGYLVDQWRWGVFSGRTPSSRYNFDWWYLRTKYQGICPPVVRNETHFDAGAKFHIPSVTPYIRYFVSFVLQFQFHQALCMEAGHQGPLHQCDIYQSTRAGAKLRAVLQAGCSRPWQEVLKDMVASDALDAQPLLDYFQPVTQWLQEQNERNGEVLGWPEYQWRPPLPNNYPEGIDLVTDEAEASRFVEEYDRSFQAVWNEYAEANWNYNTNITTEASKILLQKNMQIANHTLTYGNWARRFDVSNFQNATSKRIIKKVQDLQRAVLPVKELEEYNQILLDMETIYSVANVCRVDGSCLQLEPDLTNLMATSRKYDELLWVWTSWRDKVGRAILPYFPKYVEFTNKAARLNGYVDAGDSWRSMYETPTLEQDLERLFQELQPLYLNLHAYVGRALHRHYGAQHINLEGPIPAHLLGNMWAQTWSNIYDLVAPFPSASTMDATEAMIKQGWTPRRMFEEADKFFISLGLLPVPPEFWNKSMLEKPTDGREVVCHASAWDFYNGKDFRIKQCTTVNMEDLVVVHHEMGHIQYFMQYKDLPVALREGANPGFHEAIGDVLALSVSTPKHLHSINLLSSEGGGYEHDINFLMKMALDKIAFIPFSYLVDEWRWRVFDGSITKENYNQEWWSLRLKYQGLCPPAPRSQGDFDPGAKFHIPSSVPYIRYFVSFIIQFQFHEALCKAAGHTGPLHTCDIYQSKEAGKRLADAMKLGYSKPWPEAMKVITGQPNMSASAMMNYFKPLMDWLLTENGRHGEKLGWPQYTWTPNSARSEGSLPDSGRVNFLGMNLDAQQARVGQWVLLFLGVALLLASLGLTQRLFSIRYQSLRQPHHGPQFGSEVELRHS
# Assay: Inhibitory activity of angiotensin converting enzyme (rabbit lung acetone powder extract, HHL substrate, modified Cushman method)
# Type: biochemical
# Details: preincubated 30 minutes, reacted with HHL at 37° C. for 30 minutes; for inhibition at 0.0002 µM: inhibitor concentration 2 × 10^-4 μM; for inhibition at 20 pM: inhibitor concentration 2 × 10^-5 μM
# Method: The inhibitory activity of angiotensin converting enzyme for the compounds of this invention prepared by above examples was determined as follows;
# The inhibitory activity was determined by using a modification of the method of Cushman, et al. [Biochemical Pharmacology, 20, 1637(1971)] Rabbit lung acetone powder was extracted with 10 volumes of 50 mM sodium borate buffer solution(pH 8.3) by homogenization at 4° C. and centrifuged for 40 minutes at 40,000 ×g.
# The supernatant which contained angiotensin converting enzyme was used for ACE assay. Hippuryl-L-histidyl-L-leucine(HHL) was used as a substrate of enzymatic reaction and the reaction was determined in 13×100 mm of test tube.
# The assay mixture (total volume, 0.25 ml) consisted of 50 mM sodium borate buffer (pH 8.3), 300 mM sodium chloride, and 5 mM HHL(pH 8.3), and they were reacted by addition of 0~10 mU of rabbit lung acetone powder extract for 30 minutes at 37° C.
# The volume of enzyme extract was 0.15 ml or below and the reaction solution was preincubated at 37° C. for 30 minutes without the substrate and after adding HHL reacted for 30 minutes, the reaction was terminated by addition of 0.25 ml of 1N-HCl aqueous solution.
# In the case of blank assay, hydrochloric acid was added before adding the enzyme extract. Hippuric acid was extracted with 1.5 ml of ethyl acetate which was separated by centrifuging at 3,000 rpm for 10 minutes. 1.0ml of ethyl acetate layer was transferred into the test tube and evaporated at 90° C. for 1 hour on temp-block.
# Hippuric acid was dissolved in 1.0 ml of 50 mM sodium borate buffer (pH 8.3) and qualified from its absorbance at 228 nm. The final concentration of inhibitor was adjusted to 2×10^-4, 2×10^-5 μM with sodium borate buffer solution(pH 8.3) and reaction solution without the substrate was preincubated for 30 minutes and after adding the substrate, it was reacted at 37° C. for 30 minutes and terminated with 1N-HCl.
# The synthesized inhibitors with non-water soluble property were dissolved by ultrasonic treatment.
Compound,inhibition at 0.0002 µM [%],inhibition at 20 pM [%]
"CCCCCCCCCCCCCCCCCCOCC(COP(=O)(O)SC[C@@H](C)C(=O)N1CCC[C@H]1C(=O)OCc1ccc([N+](=O)[O-])cc1)OC(=O)CCCCCCCCCCCCCCC (mixture of isomers) [Compound 1, rac-1-O-octadecyl-2-O-palmitoyl-glyceryl-3-phosphorylcaptopril-p-nitrobenzyl ester]",77,39
"CCCCCCCCCCCCCCCCCCOCC(COP(=O)(O)SC[C@@H](C)C(=O)N1CCC[C@H]1C(=O)O)OC(C)=O (mixture of isomers) [Compound 4, rac-1-O-octadecyl-2-O-acetyl-glyceryl-3-phosphoryl captopril]",98,98
"CCCCCCCCCCCCCCCCCCSCC(COP(=O)(O)SC[C@@H](C)C(=O)N1CCC[C@H]1C(=O)OCc1ccc([N+](=O)[O-])cc1)OC(=O)CCCCCCCCCCCCCCC (mixture of isomers) [Compound 5, rac-1-S-octadecyl-2-O-palmitoyl-thioglyceryl-3-phosphoryl captopril-p-nitrobenzyl ester]",31,4
"CCCCCCCCCCCCCCCCCCSCC(COP(=O)(O)SC[C@@H](C)C(=O)N1CCC[C@H]1C(=O)O)OC(C)=O (mixture of isomers) [Compound 8, rac-1-S-octadecyl-2-O-acetyl-thioglyceryl-3-phosphoryl captopril]",90,80
"CCCCCCCCCCCCCCCCCCSCC(COP(=O)(O)SC[C@@H](C)C(=O)N1CCC[C@H]1C(=O)O)OC(=O)CCCCCCCCCCCCCCC (mixture of isomers) [Compound 6, rac-1-S-octadecyl-2-O-palmitoyl-thioglyceryl-3-phosphoryl captopril]",92,70
"CCCCCCCCCCCCCCCCCCOCC(COP(=O)(O)SC[C@@H](C)C(=O)N1CCC[C@H]1C(=O)OCc1ccc([N+](=O)[O-])cc1)OC(C)=O (mixture of isomers) [Compound 3, rac-1-O-octadecyl-2-O-acetyl-glyceryl-3-phosphoryl captopril-p-nitrobenzyl ester]",85,60
"CCCCCCCCCCCCCCCCCCSCC(COP(=O)(O)SC[C@@H](C)C(=O)N1CCC[C@H]1C(=O)OCc1ccc([N+](=O)[O-])cc1)OC(C)=O (mixture of isomers) [Compound 7, rac-1-S-octadecyl-2-O-acetyl-thioglyceryl-3-phosphoryl captopril-p-nitrobenzyl ester]",78,43
"CCCCCCCCCCCCCCCCCCOCC(COP(=O)(O)SC[C@@H](C)C(=O)N1CCC[C@H]1C(=O)O)OC(=O)CCCCCCCCCCCCCCC (mixture of isomers) [Compound 2, rac-1-O-octadecyl-2-O-palmitoyl-glyceryl-3-phosphoryl captopril]",97,80

# — patent US5358961A, “Pyrrolidine derivatives” (Jin Ro Limited, priority 1991, dated 1994)
